Test results taken from patent publication US20080039377A1, “Composition Comprising a Jnk Inhibitor and Cyclosporin” (Applied Research Systems ARS Holding N.V., priority 2004, published 2008).

System: model of global ischemia in gerbils
Experiment: Neuroprotective effect of a JNK inhibitor combined with cyclosporin in a model of global ischemia in gerbils
Assay type: in vivo
Conditions: for neuroprotective effects (hippocampal damage assessed by histology): compared to vehicle and to JNK inhibitor alone
Protocol: In Vivo Assay: Neuroprotective Effect of a JNK Inhibitor Combined with Cyclosporin in a Model of Global Ischemia in Gerbils
The following assay aims at determining the neuroprotective effect of the test compositions in a model of global ischemia in gerbils, in vivo.
A total of 73 gerbils (60-80 g; obtained from Elevage Janvier, France) were provided. 4 groups, each consisting of 6-36 animals were formed: • Group 1 (n=36): The animals were administered (ip) a dose of 10 ml/kg of vehicle. • Group 2 (n=6): The animals were administered (ip) a dose of 15 mg/kg of cyclosporine. • Group 3 (n=8): The animals were administered (ip) a dose of 60 or 40 mg/kg of a JNK inhibitor according to formula (I) or (II). • Group 4 (n=7-8): The animals were administered (ip) a dose of the test composition containing 60 or 40 mg/kg of a JNK inhibitor according to formula (I) or (II) together with 15 mg/kg cyclosporine.
Surgery. Gerbils weighting 60-80 g were anaesthetized with 4% isoflurane (Baxter, Volketswil, Switzerland) in medical air, administered via facemask. The anaesthesia was then maintained using 3% isoflurane until the end of surgery. Bilateral common carotid arteries were dissected and occluded with bulldog clamps for 5 min.
Histology. Seven days after the onset of occlusion, the animals were killed by decapitation. The brains were frozen at −20° C. in 2-methylbutane and cut in 20 μm-thick sections in a cryocut (Microm HM 5000M, Walldorf, Germany). The sections were stained with cresyl violet acetate and the lesion in the hippocampus were scored within a 5-point scale: • Score 0: No loss of CA1 neurons; • Score 1: Weak damage of CA1 (CA1/Subiculum or CA1/CA3 border); • Score 2: Loss of CA1 neurons (<1/2); • Score 3: Loss of CA1 neurons (>1/2); and • Score 4: Total loss of CA1 neurons and expanding into other areas (CA3, Dentate gyrus, Cortex). The total score was obtained as the sum of scores in the right and left hemispheres.

## N#CC(c1ccnc(NCCc2cccnc2)n1)c1nc2ccccc2s1 (centres unmarked) [Compound A, 1,3-benzothiazol-2-yl(2-{[2-(3-pyridinyl)ethyl]amino}-4-pyrimidinyl)acetonitrile]
JNK inhibitor 60 mg/kg ip with Cyclosporin 15 mg/kg ip
  neuroprotective effects (hippocampal damage assessed by histology): increases the neuroprotective effects
Table I, Group 2: JNK inhibitor 0 mg/kg ip, Cyclosporine A 15 mg/kg ip, hippocampal lesion score (sum of both hemispheres, 0-4 each) 7 days after 5 min bilateral carotid occlusion
  Histological score Mean ± SEM: 6.0 ± 0.0
Table I, Group 3: JNK inhibitor 60 mg/kg ip, Cyclosporine A 0 mg/kg, hippocampal lesion score 7 days after occlusion
  Histological score Mean ± SEM: 3.6 ± 0.8
Table I, Group 4: JNK inhibitor 60 mg/kg ip together with Cyclosporine A 15 mg/kg ip, hippocampal lesion score 7 days after occlusion
  Histological score Mean ± SEM: 1.3 ± 0.6

## CC#N.CCCCNC1CCN(S(=O)(=O)c2ccc(CNC(=O)c3ccc(Cl)cc3)s2)CC1 [Compound B, 4-chloro-N-[(5-{[4-(butylamino)piperidin-1-yl]sulfonyl}thien-2-yl)methyl]benzamide acetonitrile]
JNK inhibitor 40 mg/kg ip with Cyclosporin 15 mg/kg ip
  neuroprotective effects (hippocampal damage assessed by histology): increases the neuroprotective effects
Table II, Group 2: JNK inhibitor 0 mg/kg ip, Cyclosporine A 15 mg/kg ip, hippocampal lesion score 7 days after occlusion
  Histological score Mean ± SEM: 6.0 ± 0.0
Table II, Group 3: JNK inhibitor 60 mg/kg ip, Cyclosporine A 0 mg/kg, hippocampal lesion score 7 days after occlusion
  Histological score Mean ± SEM: 5.3 ± 0.5
Table II, Group 4: JNK inhibitor 60 mg/kg ip together with Cyclosporine A 15 mg/kg ip, hippocampal lesion score 7 days after occlusion
  Histological score Mean ± SEM: 2.1 ± 0.6
